Earlier results in article PMC8608967, “KDS2010, a Newly Developed Reversible MAO-B Inhibitor, as an Effective Therapeutic Candidate for Parkinson’s Disease” (Neurotherapeutics, 2021).

Biological target: T1, human recombinant MAO-B (hMAO-B) (Homo sapiens, UniProt P27338)
T1 construct: purchased Sigma Aldrich
T1 sequence (P27338 1-520): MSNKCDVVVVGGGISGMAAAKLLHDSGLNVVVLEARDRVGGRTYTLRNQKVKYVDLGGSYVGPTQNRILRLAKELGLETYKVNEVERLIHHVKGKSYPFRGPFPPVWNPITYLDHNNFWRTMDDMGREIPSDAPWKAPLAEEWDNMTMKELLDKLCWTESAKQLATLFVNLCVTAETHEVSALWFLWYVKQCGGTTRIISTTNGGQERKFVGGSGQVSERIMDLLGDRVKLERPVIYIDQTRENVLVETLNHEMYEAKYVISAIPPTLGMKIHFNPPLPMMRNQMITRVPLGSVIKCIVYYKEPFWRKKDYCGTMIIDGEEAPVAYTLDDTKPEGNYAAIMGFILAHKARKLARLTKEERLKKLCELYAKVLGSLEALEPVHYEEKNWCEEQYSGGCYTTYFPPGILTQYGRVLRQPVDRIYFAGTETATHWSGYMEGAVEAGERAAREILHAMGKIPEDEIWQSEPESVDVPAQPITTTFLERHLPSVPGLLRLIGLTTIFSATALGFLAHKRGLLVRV
Settings: cited from earlier work

## C[C@H](NCc1ccc(-c2ccc(C(F)(F)F)cc2)cc1)C(N)=O [Compound 18j]
Same binding cavity as selegiline
  mode of MAO-B inhibition: competitive inhibitor
With enantiomeric selectivity
  reversibility of MAO-B inhibition: reversible
